Data published in US20260007599A1, “TICAGRELOR IV FORMULATIONS FOR USE IN THE TREATMENT OF GRAM-POSITIVE BACTEREMIA” (Hyloris Developments SA, priority 2023, published 2026).

Legend:
[1] = Solubilization of ticagrelor in unbuffered cyclodextrin stock solutions in milli Q water, appearance on shaking platform; assay type: physicochemical;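 on Appearance in cyclodextrin: plus means clear and fully dissolved while plus-minus means clear solution with precipitation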
Description: In a first example two different types of cyclodextrin were used and compared for the solubilization of ticagrelor. An unbuffered stock solution of HPBCD or SBECD was made in water at the target concentrations of 20 w/w %, 25 w/w %, 30 w/w %, 35 w/w % and 40 w/w %. Ticagrelor was added slowly under vortex. Ticagrelor was used at concentrations of 5, 10 or 14 mg/ml in milli Q water. The ticagrelor-cyclodextrin solutions were left on a shaking platform. No sonification or heat was applied.

[2] = Clear aqueous solutions with ticagrelor-cyclodextrin inclusion complex (Table 17); assay type: physicochemical; conditions: using 20-40% w/w HPβCD
[3] = test system: vancomycin-resistant E. Faecalis (VRE); conditions: ex-vivo; cited from earlier work
[4] = test system: Methicillin resistant Staphylococcus aureus (MRSA); conditions: ex-vivo; cited from earlier work
[5] = phosphate buffered solution at pH 7.4; after 1 month under normal laboratory conditions of light and temperature; cited from earlier work

CCCSc1nc(N[C@@H]2C[C@H]2c2ccc(F)c(F)c2)c2nnn([C@@H]3C[C@H](OCCO)[C@@H](O)[C@H]3O)c2n1 [ticagrelor, (1S,2S,3R,5S)-3-{7-[(1R,2S)-2-(3,4-difluorophenyl)cyclopropylamino]5-(propylthio)-3H-(1,2,3)triazolo (4,5-D)pyrimidin-3-yl}-5-(2 hydroxyethoxy) cyclopentane-1,2-diol]
Appearance in cyclodextrin ([1]; HPβCD 30% w/w, ticagrelor 14 mg/ml, after overnight shaking): − (translucent solution with precipitation) | Appearance in cyclodextrin ([1]; HPβCD 35% w/w, ticagrelor 5 mg/ml, after 5 min of shaking): +/− | Appearance in cyclodextrin ([1]; HPβCD 35% w/w, ticagrelor 5 mg/ml, after 30 min of shaking): +/− | Appearance in cyclodextrin ([1]; HPβCD 35% w/w, ticagrelor 5 mg/ml, after 60 min of shaking): +/− | Appearance in cyclodextrin ([1]; HPβCD 35% w/w, ticagrelor 5 mg/ml, after 3 h of shaking): +/− | Appearance in cyclodextrin ([1]; HPβCD 35% w/w, ticagrelor 5 mg/ml, after overnight shaking): + (clear, appeared completely dissolved) | Appearance in cyclodextrin ([1]; HPβCD 35% w/w, ticagrelor 10 mg/ml, after 5 min of shaking): − (translucent solution with precipitation) | Appearance in cyclodextrin ([1]; HPβCD 35% w/w, ticagrelor 10 mg/ml, after 30 min of shaking): +/− | Appearance in cyclodextrin ([1]; HPβCD 35% w/w, ticagrelor 10 mg/ml, after 60 min of shaking): +/− | Appearance in cyclodextrin ([1]; HPβCD 35% w/w, ticagrelor 10 mg/ml, after 3 h of shaking): +/− | Appearance in cyclodextrin ([1]; HPβCD 35% w/w, ticagrelor 10 mg/ml, after overnight shaking): + (clear, appeared completely dissolved) | Appearance in cyclodextrin ([1]; HPβCD 35% w/w, ticagrelor 14 mg/ml, after 5 min of shaking): − (translucent solution with precipitation) | Appearance in cyclodextrin ([1]; HPβCD 35% w/w, ticagrelor 14 mg/ml, after 30 min of shaking): +/− | Appearance in cyclodextrin ([1]; HPβCD 35% w/w, ticagrelor 14 mg/ml, after 60 min of shaking): +/− | Appearance in cyclodextrin ([1]; HPβCD 35% w/w, ticagrelor 14 mg/ml, after 3 h of shaking): +/− | Appearance in cyclodextrin ([1]; HPβCD 35% w/w, ticagrelor 14 mg/ml, after overnight shaking): +/− | Appearance in cyclodextrin ([1]; HPβCD 40% w/w, ticagrelor 5 mg/ml, after 5 min of shaking): + (clear, appeared completely dissolved) | Appearance in cyclodextrin ([1]; HPβCD 40% w/w, ticagrelor 5 mg/ml, after 30 min of shaking): + (clear, appeared completely dissolved) | Appearance in cyclodextrin ([1]; HPβCD 40% w/w, ticagrelor 5 mg/ml, after 60 min of shaking): + (clear, appeared completely dissolved) | Appearance in cyclodextrin ([1]; HPβCD 40% w/w, ticagrelor 5 mg/ml, after 3 h of shaking): + (clear, appeared completely dissolved) | Appearance in cyclodextrin ([1]; HPβCD 40% w/w, ticagrelor 5 mg/ml, after overnight shaking): + (clear, appeared completely dissolved) | Appearance in cyclodextrin ([1]; HPβCD 40% w/w, ticagrelor 10 mg/ml, after 5 min of shaking): − (translucent solution with precipitation) | Appearance in cyclodextrin ([1]; HPβCD 40% w/w, ticagrelor 10 mg/ml, after 30 min of shaking): +/− | Appearance in cyclodextrin ([1]; HPβCD 40% w/w, ticagrelor 10 mg/ml, after 60 min of shaking): +/− | Appearance in cyclodextrin ([1]; HPβCD 40% w/w, ticagrelor 10 mg/ml, after 3 h of shaking): +/− | Appearance in cyclodextrin ([1]; HPβCD 40% w/w, ticagrelor 10 mg/ml, after overnight shaking): + (clear, appeared completely dissolved) | Appearance in cyclodextrin ([1]; HPβCD 40% w/w, ticagrelor 14 mg/ml, after 5 min of shaking): − (translucent solution with precipitation) | Appearance in cyclodextrin ([1]; HPβCD 40% w/w, ticagrelor 14 mg/ml, after 30 min of shaking): +/− | Appearance in cyclodextrin ([1]; HPβCD 40% w/w, ticagrelor 14 mg/ml, after 60 min of shaking): +/− | Appearance in cyclodextrin ([1]; HPβCD 40% w/w, ticagrelor 14 mg/ml, after 3 h of shaking): +/− | Appearance in cyclodextrin ([1]; SBECD 35% w/w, ticagrelor 5 mg/ml, after 5 min of shaking): − (translucent solution with precipitation) | Appearance in cyclodextrin ([1]; SBECD 35% w/w, ticagrelor 5 mg/ml, after 30 min of shaking): +/− | Appearance in cyclodextrin ([1]; SBECD 35% w/w, ticagrelor 5 mg/ml, after 60 min of shaking): +/− | Appearance in cyclodextrin ([1]; SBECD 35% w/w, ticagrelor 5 mg/ml, after 3 h of shaking): +/− | Appearance in cyclodextrin ([1]; SBECD 35% w/w, ticagrelor 5 mg/ml, after overnight shaking): − (translucent solution with precipitation) | Appearance in cyclodextrin ([1]; SBECD 35% w/w, ticagrelor 10 mg/ml, after 5 min of shaking): − (translucent solution with precipitation) | Appearance in cyclodextrin ([1]; SBECD 35% w/w, ticagrelor 10 mg/ml, after 30 min of shaking): − (translucent solution with precipitation) | Appearance in cyclodextrin ([1]; SBECD 35% w/w, ticagrelor 10 mg/ml, after 60 min of shaking): − (translucent solution with precipitation) | Appearance in cyclodextrin ([1]; SBECD 35% w/w, ticagrelor 10 mg/ml, after 3 h of shaking): − (translucent solution with precipitation) | Appearance in cyclodextrin ([1]; SBECD 35% w/w, ticagrelor 10 mg/ml, after overnight shaking): − (translucent solution with precipitation) | Appearance in cyclodextrin ([1]; SBECD 35% w/w, ticagrelor 14 mg/ml, after 5 min of shaking): − (translucent solution with precipitation) | Appearance in cyclodextrin ([1]; SBECD 35% w/w, ticagrelor 14 mg/ml, after 30 min of shaking): − (translucent solution with precipitation) | Appearance in cyclodextrin ([1]; SBECD 35% w/w, ticagrelor 14 mg/ml, after 60 min of shaking): − (translucent solution with precipitation) | Appearance in cyclodextrin ([1]; SBECD 35% w/w, ticagrelor 14 mg/ml, after 3 h of shaking): − (translucent solution with precipitation) | Appearance in cyclodextrin ([1]; SBECD 35% w/w, ticagrelor 14 mg/ml, after overnight shaking): − (translucent solution with precipitation) | Appearance in cyclodextrin ([1]; SBECD 40% w/w, ticagrelor 10 mg/ml, after 5 min of shaking): − (translucent solution with precipitation) | Appearance in cyclodextrin ([1]; SBECD 40% w/w, ticagrelor 10 mg/ml, after 30 min of shaking): − (translucent solution with precipitation) | Appearance in cyclodextrin ([1]; SBECD 40% w/w, ticagrelor 10 mg/ml, after 60 min of shaking): − (translucent solution with precipitation) | Appearance in cyclodextrin ([1]; SBECD 40% w/w, ticagrelor 10 mg/ml, after 3 h of shaking): − (translucent solution with precipitation) | Appearance in cyclodextrin ([1]; SBECD 40% w/w, ticagrelor 10 mg/ml, after overnight shaking): − (translucent solution with precipitation) | Appearance in cyclodextrin ([1]; SBECD 40% w/w, ticagrelor 14 mg/ml, after 5 min of shaking): − (translucent solution with precipitation) | Appearance in cyclodextrin ([1]; SBECD 40% w/w, ticagrelor 14 mg/ml, after 30 min of shaking): − (translucent solution with precipitation) | Appearance in cyclodextrin ([1]; SBECD 40% w/w, ticagrelor 14 mg/ml, after 60 min of shaking): − (translucent solution with precipitation) | Appearance in cyclodextrin ([1]; SBECD 40% w/w, ticagrelor 14 mg/ml, after 3 h of shaking): − (translucent solution with precipitation) | Appearance in cyclodextrin ([1]; SBECD 40% w/w, ticagrelor 14 mg/ml, after overnight shaking): − (translucent solution with precipitation) | Appearance on standing ([1]; ticagrelor 5 mg/ml in HPBCD 40%, 35% or 30% w/w in milliQ water, at least three days at room temperature and several days at 4° C.): remained clear | ticagrelor solution concentration achieved [2]: 5 −13 mg/ml | minimal bactericidal concentration [3]: 20 microgram/ml | minimal bactericidal concentration [4]: 20 microgram/ml | ticagrelor concentrations in solution [5]: declined
